Results on 1 molecule are retold here after US20250318524A1, “ANTIMICROBIAL COATING COMPOSITION AND METHOD OF USE THEREOF” (priority 2024, published 2025).

The data set can be described thus: Selection of antimicrobial agents: solubility in aqueous solution, stability, compatibility with the coating composition. To be noted: 20 wt. % in aqueous solution, during storage.

For the molecule `N=C(NCCCCCCNC(=N)NC(=N)Nc1ccc(Cl)cc1)NC(=N)Nc1ccc(Cl)cc1.O=C(O)[C@H](O)[C@@H](O)[C@H](O)[C@H](O)CO.O=C(O)[C@H](O)[C@@H](O)[C@H](O)[C@H](O)CO` [Chlorhexidine gluconate, chlorhexidine gluconate], the “colour of solution over time” value is on record as “turned dark brown”.
